Data set [1] in a line: Inhibition of VLA-4 binding to radiolabeled vascular cell adhesion molecule-1 (VCAM-1) Ig fusion protein in human Jurkat cells. Format: cell-based.
A short description of data set [2]: Plasma clearance rate in Sprague-Dawley rats. The settings on record: rat, read-out: Clp. Format: ADME, organism-based.
The nature of data set [3]: Bioavailability in rat (Sprague-Dawley) (dose 1 mg/kg i.v. and 2 mg/kg p.o.). The format is ADME, organism-based. Conditions: in vivo, po.
A short description of data set [4]: Plasma half-life was determined in Sprague-Dawley rats after 0-8 h administration of the compound. Format: ADME, organism-based. The settings on record: rat.
Data set [5] has as its target T1, Integrin alpha-4/beta-7 (Homo sapiens, UniProt P13612+P26010).
T1 sequence (P13612 whole entry): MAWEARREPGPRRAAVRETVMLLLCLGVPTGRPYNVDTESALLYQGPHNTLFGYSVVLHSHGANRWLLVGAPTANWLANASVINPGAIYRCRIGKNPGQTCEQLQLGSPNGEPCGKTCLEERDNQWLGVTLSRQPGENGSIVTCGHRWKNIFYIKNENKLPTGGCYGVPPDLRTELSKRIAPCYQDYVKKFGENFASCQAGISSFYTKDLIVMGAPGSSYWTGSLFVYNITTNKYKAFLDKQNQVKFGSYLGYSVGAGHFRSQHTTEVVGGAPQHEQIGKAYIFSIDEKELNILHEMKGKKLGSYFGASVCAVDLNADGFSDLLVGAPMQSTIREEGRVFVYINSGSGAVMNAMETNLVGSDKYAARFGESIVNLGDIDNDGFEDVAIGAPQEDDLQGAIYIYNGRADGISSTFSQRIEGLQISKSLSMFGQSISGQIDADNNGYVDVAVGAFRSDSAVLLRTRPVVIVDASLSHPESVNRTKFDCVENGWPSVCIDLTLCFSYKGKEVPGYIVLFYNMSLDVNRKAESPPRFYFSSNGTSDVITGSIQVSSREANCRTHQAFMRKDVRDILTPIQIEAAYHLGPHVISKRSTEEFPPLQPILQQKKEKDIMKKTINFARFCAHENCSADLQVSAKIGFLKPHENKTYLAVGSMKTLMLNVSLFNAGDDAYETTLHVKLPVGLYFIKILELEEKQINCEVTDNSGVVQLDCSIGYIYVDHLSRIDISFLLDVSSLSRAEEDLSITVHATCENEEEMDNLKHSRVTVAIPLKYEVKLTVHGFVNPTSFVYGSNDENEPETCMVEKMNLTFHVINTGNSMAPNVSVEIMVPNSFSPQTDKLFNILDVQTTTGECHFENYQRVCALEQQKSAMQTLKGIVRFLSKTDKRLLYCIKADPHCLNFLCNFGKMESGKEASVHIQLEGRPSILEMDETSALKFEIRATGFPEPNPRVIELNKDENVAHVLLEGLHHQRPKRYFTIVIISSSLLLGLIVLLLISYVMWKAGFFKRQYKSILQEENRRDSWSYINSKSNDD
T1 sequence (P26010 whole entry): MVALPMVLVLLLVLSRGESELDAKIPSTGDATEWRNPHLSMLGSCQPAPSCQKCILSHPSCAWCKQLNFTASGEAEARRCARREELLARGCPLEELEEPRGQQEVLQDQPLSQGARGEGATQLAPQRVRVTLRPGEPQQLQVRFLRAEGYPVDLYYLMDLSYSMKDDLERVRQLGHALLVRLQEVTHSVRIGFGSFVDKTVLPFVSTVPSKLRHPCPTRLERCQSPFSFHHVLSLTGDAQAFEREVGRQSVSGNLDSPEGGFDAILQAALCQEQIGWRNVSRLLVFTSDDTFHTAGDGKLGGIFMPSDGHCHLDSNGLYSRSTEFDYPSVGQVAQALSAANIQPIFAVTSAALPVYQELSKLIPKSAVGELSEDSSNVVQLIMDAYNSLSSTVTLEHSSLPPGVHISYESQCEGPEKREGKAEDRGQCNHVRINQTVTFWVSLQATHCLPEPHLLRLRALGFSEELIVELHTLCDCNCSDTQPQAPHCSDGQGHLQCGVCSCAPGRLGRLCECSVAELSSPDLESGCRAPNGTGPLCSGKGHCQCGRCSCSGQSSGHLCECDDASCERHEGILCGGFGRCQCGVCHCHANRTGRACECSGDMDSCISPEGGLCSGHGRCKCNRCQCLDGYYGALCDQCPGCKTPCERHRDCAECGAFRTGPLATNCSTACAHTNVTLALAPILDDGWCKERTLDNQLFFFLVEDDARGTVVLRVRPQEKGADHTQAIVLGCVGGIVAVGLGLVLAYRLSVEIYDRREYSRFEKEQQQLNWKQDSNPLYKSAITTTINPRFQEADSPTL
The data set can be described thus: Inhibition of alpha4-beta7 integrin binding to radiolabeled vascular cell adhesion molecule-1 (VCAM-1) Ig fusion protein in human Jurkat cells. The format is cell-based.

A value given as a limit tells only on which side of the number the result lay.

`COc1ccccc1-c1ccc(C[C@H](NC(=O)C2(c3cccnc3C)CCCC2)C(=O)O)cc1`: the IC50 was 1.5 nM in data set [1] and 44 nM in data set [5]. Moreover, the clearance in data set [2] is above 6 L/h/kg. In data set [3], this compound came in with a bioavailability of 11%. The half-life in data set [4] is 36 min.

Regarding `COc1ccccc1-c1ccc(C[C@H](NC(=O)C2(c3cccnc3)CCCCC2)C(=O)O)cc1`, the values for the IC50 in data set [1] and in data set [5] were 1.4 nM and 158 nM, respectively. Besides, the clearance in data set [2] was 4.92 L/h/kg. The bioavailability in data set [3] came out at 6%. In data set [4], this compound had a half-life of 24 min.

Consider `COc1ccccc1-c1ccc(C[C@H](NC(=O)C2(c3cccnc3)CCCC2)C(=O)O)cc1`, for which the results for the IC50 in data set [1] and in data set [5] were 0.5 nM and 9.9 nM, respectively. Besides, in data set [2], the clearance came out at 1.44 L/h/kg. Further, the bioavailability in data set [3] was determined as 35%. In data set [4], this compound gave a half-life of 66 min.

The record behind these values is ChEMBL document CHEMBL1135845, “N-(arylacetyl)-biphenylalanines as potent VLA-4 antagonists” (Bioorg Med Chem Lett, 2002).
